Results on two molecules are retold here after article PMC10907609, “Structural and functional characterization of the endogenous agonist for orphan receptor GPR3” (Cell Research, 2024).

For orientation: EC50 means the concentration that produces a half-maximal response. The low end stands for higher potency in that assay, the high end for lower potency in that assay.

Experiment [1] concerns the target T1, GPR3 (Homo sapiens, UniProt P46089). Nature of the experiment: cryo-EM structure ([…] Å), SPR, MS of co-purified ligand; GTP turnover on purified complex; EC50 from cell-based cAMP Glo-Sensor assay. Details: GPR3–Gs–scFv16 complex; with Gs heterotrimer (scFv16-stabilised).
Target sequence in this assay (P46089 whole entry): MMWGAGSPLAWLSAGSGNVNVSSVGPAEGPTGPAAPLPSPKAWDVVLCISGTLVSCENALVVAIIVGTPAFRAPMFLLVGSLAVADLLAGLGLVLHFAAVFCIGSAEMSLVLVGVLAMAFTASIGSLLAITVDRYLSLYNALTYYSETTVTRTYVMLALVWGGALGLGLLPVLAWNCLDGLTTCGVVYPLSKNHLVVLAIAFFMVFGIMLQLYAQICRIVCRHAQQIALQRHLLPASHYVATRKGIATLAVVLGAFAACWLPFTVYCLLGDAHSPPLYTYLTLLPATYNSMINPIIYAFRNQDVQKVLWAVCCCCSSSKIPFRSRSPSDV
Target sequence in this assay (P63092 2-394 partner): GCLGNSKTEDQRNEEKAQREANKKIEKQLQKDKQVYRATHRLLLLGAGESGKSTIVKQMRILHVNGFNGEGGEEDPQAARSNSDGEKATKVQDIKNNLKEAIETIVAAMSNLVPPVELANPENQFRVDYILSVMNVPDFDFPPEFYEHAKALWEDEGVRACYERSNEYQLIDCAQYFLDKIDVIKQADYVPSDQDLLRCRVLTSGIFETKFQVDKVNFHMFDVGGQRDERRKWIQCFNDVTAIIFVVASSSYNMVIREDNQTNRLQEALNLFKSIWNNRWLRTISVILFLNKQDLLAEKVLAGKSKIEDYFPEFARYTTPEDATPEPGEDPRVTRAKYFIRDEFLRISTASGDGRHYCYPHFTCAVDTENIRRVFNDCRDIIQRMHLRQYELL
Target sequence in this assay (P62873 2-340 partner): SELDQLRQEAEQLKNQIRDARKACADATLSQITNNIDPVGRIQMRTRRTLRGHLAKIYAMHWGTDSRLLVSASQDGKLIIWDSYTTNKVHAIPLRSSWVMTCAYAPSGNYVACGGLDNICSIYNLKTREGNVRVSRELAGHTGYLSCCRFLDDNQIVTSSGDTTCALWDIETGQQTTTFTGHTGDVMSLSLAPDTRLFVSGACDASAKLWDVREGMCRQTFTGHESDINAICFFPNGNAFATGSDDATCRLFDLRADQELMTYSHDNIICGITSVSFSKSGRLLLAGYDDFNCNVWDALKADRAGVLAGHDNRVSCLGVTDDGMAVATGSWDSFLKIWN
Target sequence in this assay (P59768 2-68 partner): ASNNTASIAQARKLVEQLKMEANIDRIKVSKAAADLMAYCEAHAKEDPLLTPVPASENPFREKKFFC
For experiment [2], the target named is T1, GPR3. Nature of the experiment: cell-based cAMP Glo-Sensor assay (no significant activity in purified GTP turnover assay).
Target sequence in this assay (P46089 whole entry): as the sequence (P46089 whole entry) above

`CCCCCCCC/C=C\CCCCCCCC(=O)NCCO` [OEA, oleoylethanolamide] returned a concentration for a half-maximal effect (EC50) in experiment [1] of 2.5 µM.
On to `CCCCCCCC/C=C\CCCCCCCC(N)=O` [oleamide], for which it took 5.6 µM to reach a half-maximal effect in experiment [2] (EC50).
